Results: patent US20060002960A1 (priority 2003, published 2006)
Values joined by “and” are separate entries in the source; they are usually repeats but may differ in a detail not shown here. Equal entries are not always repeated. Where two headings read alike, the source gives them in different places.

Columns and labels:
LT or CT = settings: cited from earlier work
C57B1/6 mice [1] = settings: mouse, in vivo
C57B1/6 mice [2] = settings: mouse, in vivo; remark: listed apart in the source
Y-1 adrenal cells = assay type: cell-based
C57B1/6 mice [3] = settings: mouse, in vivo; remark: listed apart in the source
mice [4] = settings: mouse, in vivo
C57B1/6 mice [5] = settings: mouse, in vivo; remark: listed apart in the source
Balb/c mice = settings: mouse, in vivo, po
mice [6] = settings: mouse, in vivo; remark: listed apart in the source
[7] = cited from earlier work
C57B1/6 mice [8] = settings: mouse, in vivo; remark: listed apart in the source
C57B1/6 mice [9] = settings: mouse, in vivo; remark: listed apart in the source
mice [10] = settings: mouse, in vivo; remark: listed apart in the source
C57B1/6 mice [11] = settings: mouse, in vivo; remark: listed apart in the source
C57B1/6 mice [12] = settings: mouse, in vivo; remark: listed apart in the source
mice [13] = settings: mouse, in vivo; remark: listed apart in the source

In the case of Nc1ccc(OC2OC(CO)C(O)C(O)C2O)cc1 (stereo not drawn) [p-aminophenyl α-galactoside], the IC50 (LT or CT) is listed as 4800 to 12000 µM.

With “Escherichia coli heat-labile enterotoxin [LT]” the “histological examination of injection site” value (C57B1/6 mice [1]) was “elicited an inflammatory response that persisted for days”, the “mice with inflammatory response” value (C57B1/6 mice [1]) was 4 of 7 and the persistence of induration (C57B1/6 mice [1]) was “greater than 2 weeks”. The “skin nodules (incidence, words)” value (C57B1/6 mice [1]) was “did not cause skin nodules in six out of the seven injected mice”, the “skin nodules / inflammatory response after intradermal injection” value (“skin nodules / inflammatory response” below) (C57B1/6 mice [1]) was “caused skin nodules in all mice” and the toxin-induced inflammation (C57B1/6 mice [1]) was “completely abolished”. The “anti-OVA antibody titers GMT” value (C57B1/6 mice [2]) was 32,000, the “rounding of cultured cells” value (Y-1 adrenal cells) was 70-100% and the “percentage of rounded cells” value (Y-1 adrenal cells; 0.05 ng/ml, 6-8 h) was “−−− (key: +++ 70-100% rounded cells; ++ 50-75%; + 25-50%; −−− <25%)”. For the same molecule, the “percentage of rounded cells” value (Y-1 adrenal cells; 0.1 ng/ml, 6-8 h) was “−−− (key: +++ 70-100% rounded cells; ++ 50-75%; + 25-50%; −−− <25%)”, the “percentage of rounded cells” value (Y-1 adrenal cells; 0.2 ng/ml, 6-8 h) was “+ (key: +++ 70-100% rounded cells; ++ 50-75%; + 25-50%; −−− <25%)” and the “percentage of rounded cells” value (Y-1 adrenal cells; 0.4 ng/ml, 6-8 h) was “++ (key: +++ 70-100% rounded cells; ++ 50-75%; + 25-50%; −−− <25%)”. For the same molecule, the “percentage of rounded cells” value (Y-1 adrenal cells; 0.8 ng/ml, 6-8 h) was “+++ (key: +++ 70-100% rounded cells; ++ 50-75%; + 25-50%; −−− <25%)”, the “percentage of rounded cells” value (Y-1 adrenal cells; 1.6 ng/ml, 6-8 h) was “+++ (key: +++ 70-100% rounded cells; ++ 50-75%; + 25-50%; −−− <25%)” and the “percentage of rounded cells” value (Y-1 adrenal cells; 3.1 ng/ml, 6-8 h) was “+++ (key: +++ 70-100% rounded cells; ++ 50-75%; + 25-50%; −−− <25%)”. For the same molecule, the “percentage of rounded cells” value (Y-1 adrenal cells; 6.3 ng/ml, 6-8 h) was “+++ (key: +++ 70-100% rounded cells; ++ 50-75%; + 25-50%; −−− <25%)”, the “percentage of rounded cells” value (Y-1 adrenal cells; 12.5 ng/ml, 6-8 h) was “+++ (key: +++ 70-100% rounded cells; ++ 50-75%; + 25-50%; −−− <25%)” and the “percentage of rounded cells” value (Y-1 adrenal cells; 25 ng/ml, 6-8 h) was “+++ (key: +++ 70-100% rounded cells; ++ 50-75%; + 25-50%; −−− <25%)”. For the same molecule, the “percentage of rounded cells” value (Y-1 adrenal cells; 50 ng/ml, 6-8 h) was “+++ (key: +++ 70-100% rounded cells; ++ 50-75%; + 25-50%; −−− <25%)”, the “percentage of rounded cells” value (Y-1 adrenal cells; 100 ng/ml, 6-8 h at 37° C.) was “+++ (key: +++ 70-100% rounded cells; ++ 50-75%; + 25-50%; −−− <25%)” and the “Flu A IgG, Assay values (Elisa Units) Individual Mice” value (C57B1/6 mice [3]) was 150 Elisa Units and 102 Elisa Units and 47 Elisa Units and 45 Elisa Units and 642 Elisa Units and 15498 Elisa Units and 3137 Elisa Units and 6852 Elisa Units and 18563 Elisa Units and 28151 Elisa Units. For the same molecule, the “inflammatory response after IM injection” value (mice [4]) was “swelling of the thigh muscle”, the “inflammatory response after SC injection” value (mice [4]; sc) was “formation of a large nodule” and the “anti-LT antibody titers GMT” value (C57B1/6 mice [5]) was 196,000. For the same molecule, the “fold increase in G:C compared to the buffer control group” value (Balb/c mice) was 2.4 fold, the “examination of the injection sites” value (mice [6]) was “developed edema and inflammation at the site of injection” and the Kd [7] was 0.0007 µM. The “TT IgG, Assay values (Elisa Units) Individual Mice” value (“TT IgG, Assay values” below) (C57B1/6 mice [8]) was 188314 Elisa Units and 222731 Elisa Units and 178753 Elisa Units and 88333 Elisa Units and 192934 Elisa Units and 201494 Elisa Units and 169482 Elisa Units and 379919 Elisa Units and 73992 Elisa Units and 615173 Elisa Units and 204102 Elisa Units and 146225 Elisa Units and 183724 Elisa Units and 323948 Elisa Units and 202170 Elisa Units and 185486 Elisa Units and 85832 Elisa Units and 163652 Elisa Units and 208284 Elisa Units and 83436 Elisa Units and 63293 Elisa Units and 50116 Elisa Units and 121818 Elisa Units and 176340 Elisa Units and 114780 Elisa Units and 131805 Elisa Units and 6246 Elisa Units and 11745 Elisa Units and 31797 Elisa Units, the “anti-TT IgG GMT” value (C57B1/6 mice [8]) was 282,000 and the “fold greater anti-TT IgG titers than the non-adjuvanted group” value (C57B1/6 mice [8]) was 34 fold. The “immune response to co-administered TT” value (C57B1/6 mice [8]) was “significantly enhanced”, the “lymph node cell response to re-stimulation with OVA or LT” value (C57B1/6 mice [9]) was “did respond to in vitro re-stimulation with OVA or LT by producing IFN-γ and IL-4” and the “spleen cell IFN-γ response to re-stimulation” value (C57B1/6 mice [9]) was “did respond to re-stimulation by producing IFN-γ”. For the same molecule, the “times more IFNγ and IL4 producing lymphocytes compared to TT alone” value (mice [10]) was 10 times, the “Anti-OVA titers GMT” value (C57B1/6 mice [11]) was 51,000 and the “anti-LT IgG titers GMT” value (C57B1/6 mice [11]) was 30,000. For the same molecule, the “fold increase of Anti-OVA titers” value (C57B1/6 mice [11]) was 37 fold, the “anti-TT IgG titers GMT” value (C57B1/6 mice [12]) was 150,000 and the “anti-TT titers” value (C57B1/6 mice [12]) was “significantly increased”.

For “Gal-β1,3-GalNAc-β1,4-(NeuAc-α2,3)-Gal-β1,4-Glc-β1,1-ceramide [GM1]”, the “Diameter skin nodules, Average Mean ± SD” value (C57B1/6 mice [1]) was 0 cm, the “Diameter skin nodules, Individual Mice” value (C57B1/6 mice [1]) was 0 cm and the “skin nodules / inflammatory response” value (C57B1/6 mice [1]) was “not inflammatory”. The Kd (LT or CT; read-out: affinity) was 0.0001 to 0.01 µM.

For cholera toxin [CT], the “skin nodules / inflammatory response” value (C57B1/6 mice [1]) was “skin nodules”, the “TT IgG, Assay values” value (mice [13]) was 71077 Elisa Units and 113082 Elisa Units and 75238 Elisa Units and 123721 Elisa Units and 61438 Elisa Units and the “TT IgG, Geometric mean” value (mice [13]) was 85603 Elisa Units. The “fold higher antibody titers to TT than the non-adjuvanted vaccine” value (mice [13]) was 426 fold, the “inflammatory response after IM injection” value (mice [4]) was “muscle swelling” and the “TT IgG, Geometric mean” value (mice [6]) was 95419 Elisa Units. The “fold higher titers than the non-adjuvanted vaccine” value (mice [6]) was 823 fold, the “fold more active than CT/GM1” value (mice [6]) was 1.6 to 3 fold and the Kd [7] was 0.0006 µM. The “TT IgG, Assay values” value (C57B1/6 mice [8]) was 11222 Elisa Units and 14300 Elisa Units and 29533 Elisa Units and 63092 Elisa Units and 125687 Elisa Units, the “TT IgG, Geometric mean” value (C57B1/6 mice [8]) was 32734 Elisa Units and the “fold greater antibody titers to TT than the non-adjuvanted vaccine” value (C57B1/6 mice [8]) was 105 fold.

In the case of O=[N+]([O-])c1cccc(OC2OC(CO)C(O)C(O)C2O)c1 (stereo not drawn) [m-nitrophenyl α-galactoside], the IC50 (LT or CT) is listed as 600 to 700 µM.

For O=C(O)[C@H](O)[C@@H](O)[C@H](O)[C@H](O)CO[C@H]1O[C@H](CO)[C@H](O)[C@H](O)[C@H]1O [melibionic acid], the IC50 (LT or CT) is listed as 5000 to 11000 µM.
